Results as given in patent publication US9604996B2 (Bayer Pharma Aktiengesellschaft, priority 2013, dated 2017).

Biological target: T1, human adenosine A2b receptor (Homo sapiens, UniProt P29275)
T1 construct: expressed in transfected cells; host or cells: CHO-K1 (Chinese Hamster Ovary) with CRE-luciferase reporter
T1 sequence (P29275 1-332): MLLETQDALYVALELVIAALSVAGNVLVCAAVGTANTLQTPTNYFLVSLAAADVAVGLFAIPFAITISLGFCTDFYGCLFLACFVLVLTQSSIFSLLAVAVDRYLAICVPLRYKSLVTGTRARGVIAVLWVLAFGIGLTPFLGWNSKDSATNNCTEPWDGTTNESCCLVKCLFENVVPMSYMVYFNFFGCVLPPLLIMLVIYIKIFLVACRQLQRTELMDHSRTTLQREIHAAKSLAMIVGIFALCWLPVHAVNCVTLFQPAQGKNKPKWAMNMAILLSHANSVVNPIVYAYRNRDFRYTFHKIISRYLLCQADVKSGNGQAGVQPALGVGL
Test: Cellular reporter gene (CRE-luciferase) A2b receptor antagonist assay in recombinant CHO-K1 cells stimulated with NECA
Assay type: cell-based
Settings: recombinant CHO-K1 cell line, co-incubation with EC50 concentration of NECA, 3 hours, in some cases means, rounded to two significant digits
Method in brief: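 CHO-K1 cells expressing human A2b receptor with a CRE-driven firefly luciferase reporter, co-incubated with test compound and NECA at its same-day EC50 concentration. Luminescence read 3 hours after NECA addition.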

Structure (SMILES) | IC50
COCCn1c(=O)n(CCc2ccccc2)c(=O)c2c(C)c(C(=O)N3CCNC(=O)C3)sc21 [Example 28, 1-(2-Methoxyethyl)-5-methyl-6-[(3-oxopiperazin-1-yl)carbonyl]-3-(2-phenylethyl)thieno[2,3-d]pyrimidine-2,4(1H,3H)-dione] | 150 nM
Cc1c(C(=O)N2CCC(O)CC2)sc2c1c(=O)n(CC1(c3ccccc3)CC1)c(=O)n2CCC(F)(F)F [Example 49, 6-[(4-Hydroxypiperidin-1-yl)carbonyl]-5-methyl-3-[(1-phenylcyclopropyl)methyl]-1-(3,3,3-trifluoropropyl)thieno[2,3-d]pyrimidine-2,4(1H,3H)-dione] | 68 nM
Cc1c(C(=O)N2CCC(O)CC2)sc2c1c(=O)n(CC(C)(C)c1ccccc1)c(=O)n2CCC(F)(F)F [Example 50, 6-[(4-Hydroxypiperidin-1-yl)carbonyl]-5-methyl-3-(2-methyl-2-phenylpropyl)-1-(3,3,3-trifluoropropyl)thieno[2,3-d]pyrimidine-2,4(1H,3H)-dione] | 150 nM
COCCn1c(=O)n(CC(F)(F)c2ccccc2)c(=O)c2c(C)c(C(=O)N3CCC(O)CC3)sc21 [Example 52, 3-(2,2-Difluoro-2-phenylethyl)-6-[(4-hydroxypiperidin-1-yl)carbonyl]-1-(2-methoxyethyl)-5-methylthieno[2,3-d]pyrimidine-2,4(1H,3H)-dione] | 210 nM
Cc1c(C(=O)N2CCC(O)CC2)sc2c1c(=O)n(CCc1ccccn1)c(=O)n2CCC(F)(F)F [Example 53, 6-[(4-Hydroxypiperidin-1-yl)carbonyl]-5-methyl-3-[2-(pyridin-2-yl)ethyl]-1-(3,3,3-trifluoropropyl)thieno[2,3-d]pyrimidine-2,4(1H,3H)-dione] | 170 nM

Now from value to compound:

IC50 | Structure (SMILES)
53 nM | Cc1c(C(=O)N2CCNC(=O)C2)sc2c1c(=O)n(CCc1ccccc1F)c(=O)n2CCC=C(F)F [Example 30, 1-(4,4-Difluorobut-3-en-1-yl)-3-[2-(2-fluorophenyl)ethyl]-5-methyl-6-[(3-oxopiperazin-1-yl)carbonyl]thieno[2,3-d]pyrimidine-2,4(1H,3H)-dione]
120 nM | Cc1c(C(=O)N2CCNC(=O)C2)sc2c1c(=O)n(CCc1cccnc1)c(=O)n2CCC=C(F)F [Example 34, 1-(4,4-Difluorobut-3-en-1-yl)-5-methyl-6-[(3-oxopiperazin-1-yl)carbonyl]-3-[2-(pyridin-3-yl)ethyl]thieno[2,3-d]pyrimidine-2,4(1H,3H)-dione]
200 nM | CCn1c(=O)c2c(C)c(C(=O)N3CCNC(=O)C3)sc2n(CCC=C(F)F)c1=O [Example 36, 1-(4,4-Difluorobut-3-en-1-yl)-3-ethyl-5-methyl-6-[(3-oxopiperazin-1-yl)carbonyl]thieno[2,3-d]pyrimidine-2,4(1H,3H)-dione]
340 nM | CCn1c(=O)c2c(C)c(C(=O)N3CCNC(=O)C3)sc2n(CCOC)c1=O [Example 37, 3-Ethyl-1-(2-methoxyethyl)-5-methyl-6-[(3-oxopiperazin-1-yl)carbonyl]thieno[2,3-d]pyrimidine-2,4(1H,3H)-dione]
140 nM | CCn1c(=O)c2c(C)c(C(=O)N3CCNC(=O)C3(C)C)sc2n(CCC(F)(F)F)c1=O [Example 38, 6-[(2,2-Dimethyl-3-oxopiperazin-1-yl)carbonyl]-3-ethyl-5-methyl-1-(3,3,3-trifluoropropyl)thieno[2,3-d]pyrimidine-2,4(1H,3H)-dione]
88 nM | CCn1c(=O)c2c(C(F)(F)F)c(C(=O)N3CCNC(=O)C3)sc2n(CCC(F)(F)F)c1=O [Example 42, 3-Ethyl-6-[(3-oxopiperazin-1-yl)carbonyl]-5-(trifluoromethyl)-1-(3,3,3-trifluoropropyl)thieno[2,3-d]pyrimidine-2,4(1H,3H)-dione]
16 nM | Cc1c(C(=O)N2CCC(O)CC2)sc2c1c(=O)n(CC(F)(F)c1ccccc1)c(=O)n2CCC(F)(F)F [Example 51, 3-(2,2-Difluoro-2-phenylethyl)-6-[(4-hydroxypiperidin-1-yl)carbonyl]-5-methyl-1-(3,3,3-trifluoropropyl)thieno[2,3-d]pyrimidine-2,4(1H,3H)-dione]
